Reference: patent EP4273147A1, “SUBSTITUTED SPIROLACTAMS, SALTS THEREOF AND THEIR USE AS HERBICIDALLY ACTIVE SUBSTANCES” (Bayer Aktiengesellschaft, priority 2022, dated 2023)
One block for each compound: values may come before it.

Columns and labels:
VERPE [1] = assay: Herbicidal pre-emergence action (Table A11); format: in vivo, Veronica persica; settings: application rate 1280 g/ha; visual grading after ca. 3 weeks
Method in brief: (§1)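 Seeds covered with soil after sowing in sandy loam; every pot carried one monocotyledonous and one dicotyledonous weed species as a double sowing.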

MATIN [2] = assay: Herbicidal pre-emergence action (Table A4); format: in vivo, Matricaria inodora; settings: visual grading after ca. 3 weeks
Method in brief: as §1

POAAN [3] = assay: Herbicidal post-emergence action (Table B7); format: in vivo, Poa annua; settings: application rate 1280 g/ha
Method in brief: (§2)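 Weed seeds sown in sandy loam in pots (one mono- or dicot species per pot), grown in greenhouse; plants treated post-emergence at one-leaf stage, 2–3 weeks after sowing. After ~3 weeks, damage scored visually vs untreated controls (100% = plants dead, 0% = like controls).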

SETVI [4] = assay: Herbicidal pre-emergence action (Table A5); format: in vivo, Setaria viridis; settings: visual grading after ca. 3 weeks
Method in brief: as §1

MATIN [5] = assay: Herbicidal post-emergence action (Table B6); format: in vivo, Matricaria inodora; settings: application rate 1280 g/ha; rated visually after about 3 weeks
Procedure: (§3) Seeds of mono- and dicotyledonous weed plants were placed in plastic pots in sandy loam soil (doubly sown with in each case one species of mono- or dicotyledonous weed plants per pot), covered with soil and cultivated in a greenhouse under controlled growth conditions. 2 to 3 weeks after sowing, the test plants were treated at the one-leaf stage. […] After the test plants had been kept in the greenhouse under optimum growth conditions for about 3 weeks, the activity of the preparations was rated visually in comparison to untreated controls. For example, 100% activity = the plants have died, 0% activity = like control plants.

ABUTH [6] = assay: Herbicidal post-emergence action (Table B1); format: in vivo, Abutilon theophrasti; settings: application rate 1280 g/ha; treated at one-leaf stage; rated visually after about 3 weeks vs untreated controls (100% = plants have died, 0% = like control plants)
Procedure: as §3

STEME = assay: Herbicidal pre-emergence action (Table A6); format: in vivo, Stellaria media; settings: visual grading after ca. 3 weeks
Method in brief: as §1

POAAN [7] = assay: Herbicidal pre-emergence action (Table A7); format: in vivo, Poa annua; settings: visual grading after ca. 3 weeks
Method in brief: as §1

LOLRI = assay: Herbicidal pre-emergence action (Table A3); format: in vivo, Lolium rigidum; settings: visual grading after ca. 3 weeks
Method in brief: as §1

VERPE [8] = assay: Herbicidal post-emergence action (Table B10); format: in vivo, Veronica persica; settings: application rate 1280 g/ha
Procedure: as §3

ECHCG [9] = assay: Herbicidal post-emergence action (Table B3); format: in vivo, Echinochloa crus-galli; settings: rated visually after about 3 weeks
Method in brief: as §2

ABUTH [10] = assay: Herbicidal pre-emergence action (Table A1); format: in vivo, Abutilon theophrasti; settings: application rate 1280 g/ha; visual grading after ca. 3 weeks vs untreated controls (100% = plants have died off, 0% = as control plants)
Text: (§4) Seeds of mono- and dicotyledonous weed plants were sown in plastic pots (double sowings with one species of mono- and one species of dicotyledonous weed plants per pot), in sandy loam, and covered with soil.

ECHCG [11] = assay: Herbicidal pre-emergence action (Table A2); format: in vivo, Echinochloa crus-galli; settings: visual grading after ca. 3 weeks
Method in brief: as §1

ALOMY = assay: Herbicidal pre-emergence action (Table A9); format: in vivo, Alopecurus myosuroides; settings: application rate 1280 g/ha; visual grading after ca. 3 weeks
Method in brief: as §1

DIGSA [12] = assay: Herbicidal pre-emergence action (Table A12); format: in vivo, Digitaria sanguinalis; settings: visual grading after ca. 3 weeks
Method in brief: as §1

AMARE = assay: Herbicidal pre-emergence action (Table A8); format: in vivo, Amaranthus retroflexus; settings: application rate 1280 g/ha; visual grading after ca. 3 weeks vs untreated controls (100% = plants have died off, 0% = as control plants)
Text: as §4

TRZAS [13] = assay: Post-emergence effects on crop plants (Table F2); format: in vivo, Triticum aestivum; settings: application rate 320 g/ha, crop plant TRZAS
Text: (§5) 2 to 3 weeks after sowing, the test plants were sprayed in the single-leaf stage.

GLXMA [14] = assay: Pre-emergence effects on crop plants (Table D4); format: in vivo, Glycine max; settings: crop plant; application rate 320 g/ha; visual grading after ca. 3 weeks
Text: Seeds of mono- and dicotyledonous weed plants and crop plants were sown, in plastic or organic planting pots, in sandy loam and covered with soil. The compounds according to the invention, formulated in the form of wettable powders (WP) or as emulsifiable concentrates (EC), were applied to the surface of the covering soil as aqueous suspension or emulsion, with the addition of 0.5% of an additive, at an application rate of 600 1 of water/ha (converted).
Following treatment, the pots were placed in a greenhouse and kept under optimum growth conditions for the test plants.

ORYZA = assay: Post-emergence effects on crop plants (Table F3); format: in vivo, Oryza sativa; settings: application rate 320 g/ha, crop plant ORYZA
Text: as §5

GLXMA [15] = assay: Post-emergence effects on crop plants (Table F4); format: in vivo, Glycine max; settings: application rate 80 g/ha, crop plant GLXMA
Text: as §5

TRZAS [16] = assay: Pre-emergence effects on crop plants (Table D2); format: in vivo, Triticum aestivum; settings: crop plant; application rate 320 g/ha; visual grading after ca. 3 weeks
BRSNW [17] = assay: Pre-emergence effects on crop plants (Table D5); format: in vivo, Brassica napus; settings: crop plant; application rate 320 g/ha; visual grading after ca. 3 weeks
ZEAMX [18] = assay: Post-emergence effects on crop plants (Table F1); format: in vivo, Zea mays; settings: application rate 320 g/ha, crop plant ZEAMX
Text: as §5

ZEAMX [19] = assay: Pre-emergence effects on crop plants (Table D1); format: in vivo, Zea mays; settings: crop plant; application rate 80 g/ha; visual grading after ca. 3 weeks
DIGSA [20] = assay: Herbicidal pre-emergence action, section C (Table C5); format: in vivo, Digitaria sanguinalis; settings: application rate 320 g/ha; visual grading after ca. 3 weeks
BRSNW [21] = assay: Post-emergence effects on crop plants (Table F5); format: in vivo, Brassica napus; settings: application rate 320 g/ha, crop plant BRSNW
Text: as §5

VIOTR = assay: Herbicidal post-emergence action, section E (Table E10); format: in vivo, Viola tricolor; settings: application rate 320 g/ha; assessed visually after ca. 3 weeks
Text: as §5

SETVI [22] = assay: Herbicidal pre-emergence action, section C (Table C10); format: in vivo, Setaria viridis; settings: application rate 320 g/ha; visual grading after ca. 3 weeks
KCHSC = assay: Herbicidal pre-emergence action (Table A10); format: in vivo, Kochia scoparia; settings: application rate 1280 g/ha; visual grading after ca. 3 weeks
Method in brief: as §1

Compound: O=C1N(Cc2ccccc2F)CCCC12CCCN(Cc1c(F)cccc1F)C2=O (racemic) [I-031]
pre-emergence activity against VERPE (VERPE [1]): 90%
pre-emergence activity against MATIN (MATIN [2]; application rate 320 g/ha): 90%
post-emergence activity against POAAN (POAAN [3]): 90%
pre-emergence activity against SETVI (SETVI [4]; application rate 320 g/ha): 100%
post-emergence activity against MATIN (MATIN [5]): 90%
post-emergence activity against ABUTH (ABUTH [6]): 90%
pre-emergence activity against STEME (STEME; application rate 320 g/ha): 90%
pre-emergence activity against POAAN (POAAN [7]; application rate 320 g/ha): 100%
pre-emergence activity against LOLRI (LOLRI; application rate 320 g/ha): 100%
post-emergence activity against VERPE (VERPE [8]): 90%
post-emergence activity against ECHCG (ECHCG [9]; application rate 320 g/ha): 90%
pre-emergence activity against ABUTH (ABUTH [10]): 90%
pre-emergence activity against ECHCG (ECHCG [11]; application rate 320 g/ha): 100%
pre-emergence activity against ALOMY (ALOMY): 90%

Compound: O=C1N(Cc2ccsc2)CCCC12CCCN(Cc1ccsc1)C2=O (racemic) [I-046]
pre-emergence activity against SETVI (SETVI [4]; application rate 1280 g/ha): 90%
pre-emergence activity against DIGSA (DIGSA [12]; application rate 1280 g/ha): 90%
pre-emergence activity against AMARE (AMARE): 90%
pre-emergence activity against STEME (STEME; application rate 320 g/ha): 100%
pre-emergence activity against POAAN (POAAN [7]; application rate 1280 g/ha): 100%
pre-emergence activity against LOLRI (LOLRI; application rate 1280 g/ha): 90%
pre-emergence activity against ECHCG (ECHCG [11]; application rate 1280 g/ha): 100%

pre-emergence activity against GLXMA (GLXMA [14]): 10%
pre-emergence activity against TRZAS (TRZAS [16]): 10%
pre-emergence activity against BRSNW (BRSNW [17]): 10%
pre-emergence activity against ZEAMX (ZEAMX [19]): 0%
Compound: CC(c1ccccc1F)N1CCCC2(CCCN(C(C)c3ccccc3F)C2=O)C1=O (centres unmarked) [I-060]
pre-emergence activity against VERPE (VERPE [1]): 90%
post-emergence activity against TRZAS (TRZAS [13]): 0%
pre-emergence activity against SETVI (SETVI [4]; application rate 1280 g/ha): 100%
post-emergence activity against ORYZA (ORYZA): 0%
post-emergence activity against GLXMA (GLXMA [15]): 0%
pre-emergence activity against AMARE (AMARE): 90%
pre-emergence activity against STEME (STEME; application rate 1280 g/ha): 90%
pre-emergence activity against POAAN (POAAN [7]; application rate 1280 g/ha): 100%
post-emergence activity against ZEAMX (ZEAMX [18]): 10%
pre-emergence activity against DIGSA (DIGSA [20]): 100%
post-emergence activity against BRSNW (BRSNW [21]): 0%
post-emergence activity against VIOTR (VIOTR): 90%
pre-emergence activity against ECHCG (ECHCG [11]; application rate 320 g/ha): 90%
pre-emergence activity against SETVI (SETVI [22]): 100%

Compound: O=C1N(Cc2ccccc2)CCC12CCCN(Cc1cccc(F)c1F)C2=O (racemic) [I-084]
pre-emergence activity against MATIN (MATIN [2]; application rate 1280 g/ha): 90%
pre-emergence activity against KCHSC (KCHSC): 90%
pre-emergence activity against SETVI (SETVI [4]; application rate 1280 g/ha): 100%
pre-emergence activity against DIGSA (DIGSA [12]; application rate 1280 g/ha): 100%
pre-emergence activity against AMARE (AMARE): 90%
pre-emergence activity against STEME (STEME; application rate 1280 g/ha): 90%
pre-emergence activity against POAAN (POAAN [7]; application rate 320 g/ha): 100%
pre-emergence activity against LOLRI (LOLRI; application rate 1280 g/ha): 100%
pre-emergence activity against ECHCG (ECHCG [11]; application rate 1280 g/ha): 100%

Compound: Cc1ccccc1CN1CCC2(CCCN(Cc3c(F)cccc3F)C2=O)C1=O (racemic) [I-058]
pre-emergence activity against MATIN (MATIN [2]; application rate 1280 g/ha): 90%
pre-emergence activity against KCHSC (KCHSC): 90%
post-emergence activity against POAAN (POAAN [3]): 90%
pre-emergence activity against SETVI (SETVI [4]; application rate 1280 g/ha): 90%
pre-emergence activity against DIGSA (DIGSA [12]; application rate 320 g/ha): 90%
post-emergence activity against ABUTH (ABUTH [6]): 90%
pre-emergence activity against STEME (STEME; application rate 320 g/ha): 90%
pre-emergence activity against POAAN (POAAN [7]; application rate 320 g/ha): 100%
pre-emergence activity against LOLRI (LOLRI; application rate 1280 g/ha): 90%
post-emergence activity against ECHCG (ECHCG [9]; application rate 1280 g/ha): 90%
pre-emergence activity against ECHCG (ECHCG [11]; application rate 1280 g/ha): 100%
